Laboratory results taken from ChEMBL document CHEMBL5053521 (Bioorg Med Chem Lett, 2021).

Columns and labels:
Histamine H2 receptor [1] = target: T1, Histamine H2 receptor (Homo sapiens, UniProt P25021); experiment: Binding affinity to human H2R expressed in HEK293T-qs5-HA cells by flow cytometry analysis; format: cell-based
Histamine H2 receptor [2] = target: T1, Histamine H2 receptor; experiment: Agonist activity at human H2 receptor expressed in HEK293T-ARRB1 cells assessed as stimulation of beta-arrestin 1 recruitment; format: functional, cell-based
Histamine H2 receptor [3] = target: T1, Histamine H2 receptor; experiment: Agonist activity at human H2 receptor expressed in HEK293T-ARRB2 cells assessed as stimulation of beta-arrestin 2 recruitment; format: functional, cell-based
Histamine H2 receptor [4] = target: T1, Histamine H2 receptor; experiment: Agonist activity at NlucN/mini-Gi protein-fused human H2R stably expressed in HEK293T cells assessed as induction of mini-Gi protein recruitment using furimazine as substrate measured for 45 mins by luminescence assay; format: functional, cell-based
Histamine H2 receptor [5] = target: T1, Histamine H2 receptor; experiment: Displacement of [3H]UR-DE257 from Gsalphas-coupled human H2R expressed in Sf9 cell membranes by competitive binding assay; set-up: species or system Membrane
Histamine H2 receptor [6] = target: T1, Histamine H2 receptor; experiment: Agonist activity at human H2 receptor expressed in Sf9 cell membranes co-exprssing GsalphaS assessed as stimulation of [35S]GTPgammaS binding incubated for 90 mins by scintillation counting analysis; format: functional, Membrane
Histamine H2 receptor [7] = target: T1, Histamine H2 receptor; experiment: Agonist activity at human H2 receptor expressed in HEK293T-ARRB1 cells assessed as stimulation of beta-arrestin 1 recruitment by measuring maximum efficacy; format: functional, cell-based; conditions: filed as agonist

T1 sequence (P25021 whole entry): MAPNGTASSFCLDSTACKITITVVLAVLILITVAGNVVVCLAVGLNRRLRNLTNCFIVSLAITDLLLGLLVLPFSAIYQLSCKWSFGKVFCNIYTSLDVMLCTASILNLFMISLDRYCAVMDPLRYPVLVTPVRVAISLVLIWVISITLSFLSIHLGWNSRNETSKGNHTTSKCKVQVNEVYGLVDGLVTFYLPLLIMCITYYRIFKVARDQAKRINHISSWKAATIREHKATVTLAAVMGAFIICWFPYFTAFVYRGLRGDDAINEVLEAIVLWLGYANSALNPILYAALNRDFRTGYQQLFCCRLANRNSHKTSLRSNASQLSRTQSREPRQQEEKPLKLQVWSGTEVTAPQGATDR

SMILES | Kd (Histamine H2 receptor [1]) [nM] | EC50 (Histamine H2 receptor [2]) [nM] | EC50 (Histamine H2 receptor [3]) [nM] | EC50 (Histamine H2 receptor [4]) [nM] | Ki (Histamine H2 receptor [5]) [nM] | EC50 (Histamine H2 receptor [6]) [nM] | Emax (Histamine H2 receptor [7])
Cc1nc(N)sc1CCCN/C(N)=N/C(=O)NCCCCCCNC(=O)CCCCCN1/C(=C/C=C/C=C/C2=[N+](C)c3ccccc3C2(C)C)c2ccccc2C1(C)C | 33 | 513 | 191 | 501 | 21.9 | 186 | 0.57
Cc1nc(N)sc1CCCN/C(N)=N/C(=O)NCCCCCCCCNC(=O)CCCCCNC(=O)COc1ccc(/C=C/C2=[N+]3C(=Cc4ccc(-c5cccs5)n4[B-]3(F)F)C=C2)cc1 | 81.3 | – | – | – | 30.1 | 72.4 | –
CC1(C)C(/C=C/C=C/C=C2\c3ccccc3C(C)(C)N2CCCCCC(=O)NCCCCCCCCNC(=O)/N=C(\N)NCCCc2c[nH]cn2)=[N+](CCCCS(=O)(=O)[O-])c2ccccc21 | 56.2 | 427 | 115 | 339 | 66.1 | 120 | 0.25
CC1(C)C(/C=C/C=C/C=C2\c3ccccc3C(C)(C)N2CCCCCC(=O)NCCCCCCCCNC(=O)/N=C(\N)NCCCc2nnc(N)s2)=[N+](CCCCS(=O)(=O)[O-])c2ccccc21 | 112 | 339 | 64.6 | 257 | 263 | 100 | 0.55
NCCc1c[nH]cn1 | – | – | – | – | – | – | 1
Cc1nc(N)sc1CCCN/C(N)=N/C(=O)NCCCCCCNC(=O)CCCCCN1/C(=C/C=C/C=C/C2=[N+](CCCCS(=O)(=O)[O-])c3ccccc3C2(C)C)c2ccccc2C1(C)C | 1000 | – | – | 3890 | 251 | 562 | –

Now from value to molecule:

Kd (Histamine H2 receptor [1]) [nM] | EC50 (Histamine H2 receptor [2]) [nM] | EC50 (Histamine H2 receptor [3]) [nM] | EC50 (Histamine H2 receptor [4]) [nM] | Ki (Histamine H2 receptor [5]) [nM] | EC50 (Histamine H2 receptor [6]) [nM] | Emax (Histamine H2 receptor [7]) | SMILES
– | – | – | 2040 | > 1000 | 2400 | – | Cc1nc(N)sc1CCCN/C(N)=N/C(=O)NCCCCCCCCCCNC(=O)CCCCCN1/C(=C/C=C/C=C/C2=[N+](CCCCS(=O)(=O)O)c3ccccc3C2(C)C)c2cc(S(=O)(=O)[O-])ccc2C1(C)C
70.8 | 617 | 129 | 1100 | 562 | 339 | 0.09 | Cc1nc(N)sc1CCCN/C(N)=N/C(=O)NCCCCCCCCNC(=O)CCCCCN1/C(=C/C=C/C=C/C2=[N+](CCCCS(=O)(=O)[O-])c3ccccc3C2(C)C)c2ccccc2C1(C)C
> 1000 | – | – | 759 | 263 | 1290 | – | Cc1nc(N)sc1CCCN/C(N)=N/C(=O)NCCCCCCCCNC(=O)CCCCCN1/C(=C/C=C/C=C/C2=[N+](CCCCS(=O)(=O)O)c3ccccc3C2(C)C)c2cc(S(=O)(=O)[O-])ccc2C1(C)C
229 | – | – | 1450 | 95.5 | 676 | – | Cc1nc(N)sc1CCCN/C(N)=N/C(=O)NCCCCCCCCCCNC(=O)CCCCCN1/C(=C/C=C/C=C/C2=[N+](CCCCS(=O)(=O)[O-])c3ccccc3C2(C)C)c2ccccc2C1(C)C
